Source: patent EP0260829A2 (priority 1986, dated 1988)

System: anti-PCP antibody from ATCC HB 9198
Type: binding, rat
Settings: for IC50: read-out: Molar IC50

Compound | Percent Cross Reactivity With PCP [%] | IC50 [µM] | reaction with the antipentachlorophenol antibody
Oc1ccc(Cl)c(Cl)c1Cl [2,3,4-Trichlorophenol] | 0.5 | – | –
Oc1c(Cl)c(Cl)cc(Cl)c1Cl [2,3,5,6-Tetrachlorophenol] | 42 | – | –
Oc1cc(Cl)cc(Cl)c1Cl [2,3,5-Trichlorophenol] | 0.5 | – | –
Oc1c(Cl)ccc(Cl)c1Cl [2,3,6-Trichlorophenol] | 8.8 | – | –
Oc1cccc(Cl)c1Cl [2,3-Dichlorophenol] | 0 | > 1000 | –
Oc1ccc(Cl)cc1Cl [2,4-Dichlorophenol] | 0 | > 1000 | –
Oc1cc(Cl)ccc1Cl [2,5-Dichlorophenol] | 0 | > 1000 | –
Oc1c(Cl)cccc1Cl [2,6-Dichlorophenol] | 1.8 | – | –
Oc1ccc(Cl)c(Cl)c1 [3,4-Dichlorophenol] | 0 | > 1000 | –
Oc1cc(Cl)cc(Cl)c1 [3,5-Dichlorophenol] | 0 | > 1000 | –
Oc1ccc(Cl)cc1 [4-Chlorophenol] | 0 | > 1000 | –
Clc1cc(Cl)c(Cl)c(Cl)c1Cl [Pentachlorobenzene] | 0 | > 1000 | fails to react
Oc1ccccc1 [Phenol] | 0 | > 1000 | –
Oc1c(Cl)c(Cl)c(O)c(Cl)c1Cl [Tetrachlorohydroquinone] | 0.8 | – | –
